For five molecules, inhibition results are on record in PubChem BioAssay AID504520 (The Scripps Research Institute Molecular Screening Center, 2011).

Activity calls are given as the source filed them. The rule behind the calls is not given here.

Among the test systems are ESD; LYPLA1; LYPLA2; ABHD11.
What all share (assay): LYPLA1 inhibition and serine hydrolase selectivity, late-stage follow-up, fluorescence, gel-based ABPP, mouse proteome (AID 504520);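 note: soluble proteome from BW5147 murine T cells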
Holding throughout (conditions): FP-rhodamine fluorescence, stronger effect = higher value

Test [1] has as its target Platelet-activating factor acetylhydrolase 2, cytoplasmic (Mus musculus) (UniProt Q8VDG7).

Platelet-activating factor acetylhydrolase 2, cytoplasmic (Mus musculus), sequence (Q8VDG7 whole entry, looked up): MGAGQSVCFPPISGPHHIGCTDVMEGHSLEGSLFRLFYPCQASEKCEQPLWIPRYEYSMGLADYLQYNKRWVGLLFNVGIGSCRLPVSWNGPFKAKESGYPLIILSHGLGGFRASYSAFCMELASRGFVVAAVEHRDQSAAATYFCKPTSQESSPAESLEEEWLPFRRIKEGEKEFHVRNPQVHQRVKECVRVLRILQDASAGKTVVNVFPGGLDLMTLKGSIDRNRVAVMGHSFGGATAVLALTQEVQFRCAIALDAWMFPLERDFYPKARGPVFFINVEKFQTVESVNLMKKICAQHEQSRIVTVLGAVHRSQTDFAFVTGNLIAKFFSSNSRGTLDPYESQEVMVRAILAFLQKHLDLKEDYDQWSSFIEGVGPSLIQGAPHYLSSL

Turning to `O=C(N(c1ccccc1)c1ccc(Br)cc1)n1ncc(C(O)(c2ccccc2)c2ccccc2)n1`, the inhibition with ESD (at 0.75 µM) was 0% (inactive); in the test on ESD (inhibition, at 0.03 µM) it was 0%; in the test with ESD (inhibition, at 0.15 µM), 0%; in the test with LYPLA1 (at 0.75 µM), 0% (inactive); in the test with LYPLA1 (inhibition, at 0.03 µM), 0%; in the test with LYPLA1 (inhibition, at 0.15 µM), 0%. In addition, the inhibition in test [1] (PAFAH2, at 0.75 µM) was 0% (inactive); in test [1] (PAFAH2, inhibition, at 0.03 µM) it was 0%; in test [1] (PAFAH2, inhibition, at 0.15 µM), 0%; with LYPLA2 (at 0.75 µM), 0% (inactive); in the test on LYPLA2 (inhibition, at 0.03 µM), 0%; in the test with LYPLA2 (inhibition, at 0.15 µM) it was 0%. Besides, the inhibition was 100% with ABHD11 (at 0.75 µM); 0% with ABHD11 (inhibition, at 0.03 µM); 100% with ABHD11 (inhibition, at 0.15 µM).

In the case of `O=C(N(c1ccccc1)c1ccccc1)n1ncc(-c2ccc(-c3ccccc3)cc2)n1`, the inhibition with ESD (at 0.75 µM) is 0% (inactive); with ESD (inhibition, at 0.03 µM) it was 0%; in the test with ESD (inhibition, at 0.15 µM), 0%; in the test with LYPLA1 (at 0.75 µM) it was 0% (inactive); in the test with LYPLA1 (inhibition, at 0.03 µM), 0%; in the test on LYPLA1 (inhibition, at 0.15 µM), 0%. The inhibition in test [1] (PAFAH2, at 0.75 µM) was 75% (inactive); in test [1] (PAFAH2, inhibition, at 0.03 µM), 0%; in test [1] (PAFAH2, inhibition, at 0.15 µM), 0%; in the test on LYPLA2 (at 0.75 µM), 0% (inactive); with LYPLA2 (inhibition, at 0.03 µM) it was 0%; with LYPLA2 (inhibition, at 0.15 µM) it was 0%. Moreover, the inhibition in the test on ABHD11 (at 0.75 µM) is 0% (inactive); in the test on ABHD11 (inhibition, at 0.03 µM), 0%; in the test with ABHD11 (inhibition, at 0.15 µM), 0%.

For the molecule `COCCCC1CCCCN1C(=O)n1ncc(C(O)(c2ccccc2)c2ccccc2)n1` (stereo not given), the inhibition with ESD (at 0.75 µM) was 0% (inactive); in the test with ESD (inhibition, at 0.03 µM), 0%; in the test on ESD (inhibition, at 0.15 µM) it was 0%; in the test on LYPLA1 (at 0.75 µM), 0% (inactive); in the test on LYPLA1 (inhibition, at 0.03 µM) it was 0%; with LYPLA1 (inhibition, at 0.15 µM), 0%. In addition, the inhibition in test [1] (PAFAH2, at 0.75 µM) was 0% (inactive); in test [1] (PAFAH2, inhibition, at 0.03 µM), 0%; in test [1] (PAFAH2, inhibition, at 0.15 µM) it was 0%; in the test on LYPLA2 (at 0.75 µM), 0% (inactive); with LYPLA2 (inhibition, at 0.03 µM) it was 0%; with LYPLA2 (inhibition, at 0.15 µM) it was 0%. Further, the inhibition in the test with ABHD11 (at 0.75 µM) was 75%; in the test on ABHD11 (inhibition, at 0.03 µM), 0%; in the test on ABHD11 (inhibition, at 0.15 µM) it was 50%.

In the case of `COC1CCN(C(=O)n2ncc(C(O)(c3ccccc3)c3ccccc3)n2)CC1`, the inhibition with ESD (at 0.75 µM) was 25% (inactive); in the test with ESD (inhibition, at 0.03 µM) it was 0%; in the test with ESD (inhibition, at 0.15 µM) it was 0%; in the test on LYPLA1 (at 0.75 µM), 100%; with LYPLA1 (inhibition, at 0.03 µM), 0%; in the test on LYPLA1 (inhibition, at 0.15 µM), 50%. The inhibition is 0% (inactive) in test [1] (PAFAH2, at 0.75 µM); 0% in test [1] (PAFAH2, inhibition, at 0.03 µM); 0% in test [1] (PAFAH2, inhibition, at 0.15 µM); 25% (inactive) in the test on LYPLA2 (at 0.75 µM); 0% in the test on LYPLA2 (inhibition, at 0.03 µM); 0% in the test with LYPLA2 (inhibition, at 0.15 µM). The inhibition is 100% in the test on ABHD11 (at 0.75 µM); 100% in the test on ABHD11 (inhibition, at 0.03 µM); 100% in the test on ABHD11 (inhibition, at 0.15 µM).

As to `O=C(N(c1ccccc1)c1ccc2ccccc2c1)n1ncc(C(O)(c2ccccc2)c2ccccc2)n1`, the inhibition is 0% (inactive) with ESD (at 0.75 µM); 0% in the test on ESD (inhibition, at 0.03 µM); 0% in the test with ESD (inhibition, at 0.15 µM); 0% (inactive) with LYPLA1 (at 0.75 µM); 0% in the test on LYPLA1 (inhibition, at 0.03 µM); 0% in the test with LYPLA1 (inhibition, at 0.15 µM). The inhibition in test [1] (PAFAH2, at 0.75 µM) was 25% (inactive); in test [1] (PAFAH2, inhibition, at 0.03 µM), 0%; in test [1] (PAFAH2, inhibition, at 0.15 µM), 0%; in the test with LYPLA2 (at 0.75 µM), 0% (inactive); in the test with LYPLA2 (inhibition, at 0.03 µM), 0%; in the test on LYPLA2 (inhibition, at 0.15 µM), 0%. The inhibition in the test with ABHD11 (at 0.75 µM) was 100%; in the test with ABHD11 (inhibition, at 0.03 µM), 0%; in the test on ABHD11 (inhibition, at 0.15 µM), 100%.

As a reminder, the inhibition is the percentage by which the read-out fell short of the control.
